Test results as given in BigSolDB 2.1.

Cc1nc2n(c(=O)c1CCN1CCC(c3noc4cc(F)ccc34)CC1)CCCC2
solubility (mole fraction)
Settings	278.15 K	283.15 K	288.15 K	293.15 K	298.15 K	303.15 K	308.15 K	313.15 K	318.15 K	323.15 K
in acetone	0.00085	0.00095	0.00127	0.00143	0.00175	0.00219	0.00284	0.00336	0.00417	0.00507
in cumene	0.00122	0.00147	0.00207	0.00219	0.0026	0.00309	0.00376	0.00481	0.00552	0.0066
in ethanol	0.00096	0.00108	0.00131	0.00153	0.00201	0.00248	0.0033	0.00415	0.0051	0.00677
in ethyl acetate	0.00116	0.00128	0.00167	0.00185	0.00216	0.00263	0.00331	0.00397	0.00485	0.0058
in isopropanol	0.00036	0.00046	0.0006	0.0007	0.00103	0.00136	0.00203	0.00253	0.0032	0.00447
in methanol	0.00202	0.0023	0.00272	0.00329	0.00396	0.00487	0.00615	0.0077	0.0099	0.0128
in n-butanol	0.00152	0.00173	0.0022	0.00263	0.00347	0.00443	0.00593	0.00753	0.00963	0.0124
in n-propanol	0.00139	0.00155	0.00197	0.00238	0.00305	0.00381	0.00517	0.00651	0.00839	0.0109
in toluene	0.0038	0.00418	0.00521	0.00559	0.00667	0.008	0.00998	0.0117	0.014	0.0167
